Reference: article PMC5218480 (PLoS ONE, 2017)

System: MV-4-11 cells
Assay: Gene expression microarray analysis (Affymetrix PrimeView) and GSEA
Assay type: cell-based, human
Set-up: RFU PODN (11730768_x_at) / Fold change /veh PODN (11730768_x_at) / RFU LINC00158 (11744669_a_at) / Fold change /veh LINC00158 (11744669_a_at) / RFU DUSP10 (11751237_a_at) / Fold change /veh DUSP10 (11751237_a_at) / RFU ID3 (11757404_x_at) / Fold change /veh ID3 (11757404_x_at) / RFU PLEKHG5 (11737974_s_at) / Fold change /veh PLEKHG5 (11737974_s_at) / RFU LRRC4B (11730491_at) / Fold change /veh LRRC4B (11730491_at) / RFU GIMAP4 (11747438_a_at) / Fold change /veh GIMAP4 (11747438_a_at) / RFU KRT8 (11758183_x_at) / Fold change /veh KRT8 (11758183_x_at) / RFU CNN1 (11734310_a_at) / Fold change /veh CNN1 (11734310_a_at) / RFU VPS37D (11726825_at) / Fold change /veh VPS37D (11726825_at) / RFU C10orf10 (11716522_x_at) / Fold change /veh C10orf10 (11716522_x_at) / RFU KIR2DL2 /// KIR2DL4 /// KIR2DL5A /// KIR2DL5B /// KIR2DS1 /// KIR2DS2 /// KIR2DS3 /// KIR2DS4 /// KIR3DL3 /// KIR3DL3 /// KIR3DS1 (11738374_at) / Fold change /veh KIR2DL2 /// KIR2DL4 /// KIR2DL5A /// KIR2DL5B /// KIR2DS1 /// KIR2DS2 /// KIR2DS3 /// KIR2DS4 /// KIR3DL3 /// KIR3DL3 /// KIR3DS1 (11738374_at) / RFU C1QL1 (11718748_at) / Fold change /veh C1QL1 (11718748_at) / RFU TMPRSS4 (11747572_a_at) / Fold change /veh TMPRSS4 (11747572_a_at) / RFU HAMP (11756126_x_at) / Fold change /veh HAMP (11756126_x_at) / RFU RNFT2 (11725882_a_at) / Fold change /veh RNFT2 (11725882_a_at) / RFU NR4A2 (11747474_a_at) / Fold change /veh NR4A2 (11747474_a_at) / RFU ABCC12 (11746883_a_at) / Fold change /veh ABCC12 (11746883_a_at) / RFU TMEM136 (11760407_x_at) / Fold change /veh TMEM136 (11760407_x_at) / RFU CLDN22 /// WWC2 (11732394_at) / Fold change /veh CLDN22 /// WWC2 (11732394_at) / RFU HLA-DPB1 (11760878_x_at) / Fold change /veh HLA-DPB1 (11760878_x_at) / RFU SPINT1 (11716480_a_at) / Fold change /veh SPINT1 (11716480_a_at) / RFU GAP43 (11754022_s_at) / Fold change /veh GAP43 (11754022_s_at) / RFU A4GNT (11735810_at) / Fold change /veh A4GNT (11735810_at) / RFU PRB3 (11715151_x_at) / Fold change /veh PRB3 (11715151_x_at) / RFU TUBB4B (11761932_at) / Fold change /veh TUBB4B (11761932_at) / RFU CAPN14 (11732068_a_at) / Fold change /veh CAPN14 (11732068_a_at) / RFU TMCC2 (11721928_a_at) / Fold change /veh TMCC2 (11721928_a_at) / RFU IRGQ (11745062_a_at) / Fold change /veh IRGQ (11745062_a_at) / RFU FAM174B (11720279_a_at) / Fold change /veh FAM174B (11720279_a_at) / RFU TMPRSS4 (11748680_a_at) / Fold change /veh TMPRSS4 (11748680_a_at) / RFU FAM212B (11763350_a_at) / Fold change /veh FAM212B (11763350_a_at) / RFU PLEKHG5 (11743358_a_at) / Fold change /veh PLEKHG5 (11743358_a_at) / RFU ZSCAN30 (11745921_a_at) / Fold change /veh ZSCAN30 (11745921_a_at) / RFU CMKLR1 (11741424_a_at) / Fold change /veh CMKLR1 (11741424_a_at) / RFU LOC101060620 /// MAPK8IP1 (11723275_at) / Fold change /veh LOC101060620 /// MAPK8IP1 (11723275_at) / RFU SPTSSB (11747773_x_at) / Fold change /veh SPTSSB (11747773_x_at) / RFU PRSS12 (11739890_at) / Fold change /veh PRSS12 (11739890_at) / RFU BIN1 (11741810_x_at) / Fold change /veh BIN1 (11741810_x_at) / RFU WNT11 (11732464_a_at) / Fold change /veh WNT11 (11732464_a_at) / RFU C10orf10 (11716521_a_at) / Fold change /veh C10orf10 (11716521_a_at) / RFU C5orf56 (11738089_at) / Fold change /veh C5orf56 (11738089_at) / RFU CYB561 (11721691_x_at) / Fold change /veh CYB561 (11721691_x_at) / RFU ANKRD19P (11752326_a_at) / Fold change /veh ANKRD19P (11752326_a_at) / RFU OR2T12 /// OR2T33 /// OR2T8 (11738714_s_at) / Fold change /veh OR2T12 /// OR2T33 /// OR2T8 (11738714_s_at) / RFU VCAN (11748164_a_at) / Fold change /veh VCAN (11748164_a_at) / RFU JSRP1 (11732532_at) / Fold change /veh JSRP1 (11732532_at) / RFU KRTAP10-11 (11738290_x_at) / Fold change /veh KRTAP10-11 (11738290_x_at) / RFU MYO3A (11730013_a_at) / Fold change /veh MYO3A (11730013_a_at) / RFU EBF3 (11725865_a_at) / Fold change /veh EBF3 (11725865_a_at) / RFU CAMK2N1 (11719241_x_at) / Fold change /veh CAMK2N1 (11719241_x_at) / RFU C5orf56 (11738088_a_at) / Fold change /veh C5orf56 (11738088_a_at) / RFU OLFML3 (11715873_a_at) / Fold change /veh OLFML3 (11715873_a_at) / RFU LOC100653217 /// NTM (11731650_a_at) / Fold change /veh LOC100653217 /// NTM (11731650_a_at) / RFU MAPK11 (11762145_a_at) / Fold change /veh MAPK11 (11762145_a_at) / RFU FIZ1 (11724087_x_at) / Fold change /veh FIZ1 (11724087_x_at) / RFU OASL (11726364_x_at) / Fold change /veh OASL (11726364_x_at) / RFU SOX15 (11748057_x_at) / Fold change /veh SOX15 (11748057_x_at) / RFU CD79A (11719716_a_at) / Fold change /veh CD79A (11719716_a_at) / RFU HIST1H1D (11736915_at) / Fold change /veh HIST1H1D (11736915_at) / RFU CASKIN2 (11723855_a_at) / Fold change /veh CASKIN2 (11723855_a_at) / RFU LOC730098 (11760151_x_at) / Fold change /veh LOC730098 (11760151_x_at) / RFU OR4N2 (11742367_at) / Fold change /veh OR4N2 (11742367_at) / RFU PRRT2 (11749266_a_at) / Fold change /veh PRRT2 (11749266_a_at) / RFU SNX32 (11753110_a_at) / Fold change /veh SNX32 (11753110_a_at) / RFU CDHR5 (11726645_a_at) / Fold change /veh CDHR5 (11726645_a_at) / RFU RCAN1 (11760418_a_at) / Fold change /veh RCAN1 (11760418_a_at) / RFU FAM167A (11723789_a_at) / Fold change /veh FAM167A (11723789_a_at) / RFU FAM26E (11764081_at) / Fold change /veh FAM26E (11764081_at) / RFU ISYNA1 (11749810_s_at) / Fold change /veh ISYNA1 (11749810_s_at) / RFU ACY1 (11761880_at) / Fold change /veh ACY1 (11761880_at) / RFU 11764098_at / Fold change /veh 11764098_at / RFU SAMD14 (11745864_x_at) / Fold change /veh SAMD14 (11745864_x_at) / RFU NPB (11741838_a_at) / Fold change /veh NPB (11741838_a_at) / RFU TMPRSS6 (11731388_a_at) / Fold change /veh TMPRSS6 (11731388_a_at) / RFU KRTAP10-2 (11738614_at) / Fold change /veh KRTAP10-2 (11738614_at) / RFU ARHGAP8 /// PRR5-ARHGAP8 (11727945_x_at) / Fold change /veh ARHGAP8 /// PRR5-ARHGAP8 (11727945_x_at) / RFU KRTAP5-7 /// NADSYN1 (11734609_at) / Fold change /veh KRTAP5-7 /// NADSYN1 (11734609_at) / RFU RASL12 (11751679_a_at) / Fold change /veh RASL12 (11751679_a_at) / RFU CDKN2B (11736163_a_at) / Fold change /veh CDKN2B (11736163_a_at) / RFU PRF1 (11729649_at) / Fold change /veh PRF1 (11729649_at) / RFU, ZNF638 /// ZNF638-IT1 / Fold change vs veh, ZNF638 /// ZNF638-IT1 / RFU, PANK3 / Fold change vs veh, PANK3 / RFU, SH3YL1 / Fold change vs veh, SH3YL1 / RFU, ZEB2 / Fold change vs veh, ZEB2 / RFU, NRIP1 / Fold change vs veh, NRIP1 / RFU, PTTG1IP / Fold change vs veh, PTTG1IP / RFU, CAPN2 / Fold change vs veh, CAPN2 / RFU, MED14 / Fold change vs veh, MED14 / RFU, SNORA58 / Fold change vs veh, SNORA58 / RFU, C1orf63 / Fold change vs veh, C1orf63 / RFU, LRRFIP1 / Fold change vs veh, LRRFIP1 / RFU, NDUFAF7 / Fold change vs veh, NDUFAF7 / RFU, SLC12A2 / Fold change vs veh, SLC12A2 / RFU, IBTK / Fold change vs veh, IBTK / RFU, ESF1 / Fold change vs veh, ESF1 / Fold change vs veh, TMEM50B / RFU, TAOK1 / Fold change vs veh, TAOK1 / RFU, ACBD3 / Fold change vs veh, ACBD3 / RFU, TMA16 / Fold change vs veh, TMA16 / RFU, RWDD3 / Fold change vs veh, RWDD3 / RFU, BCAT1 / Fold change vs veh, BCAT1 / RFU, EDEM3 / Fold change vs veh, EDEM3 / RFU, TMEM33 / Fold change vs veh, TMEM33 / RFU, WDR75 / Fold change vs veh, WDR75 / RFU, AHCTF1 / Fold change vs veh, AHCTF1 / RFU, TFRC / Fold change vs veh, TFRC / RFU, ZDHHC17 / Fold change vs veh, ZDHHC17 / RFU, NOM1 / Fold change vs veh, NOM1 / RFU, ARL8B / Fold change vs veh, ARL8B / RFU, ZBTB11 / Fold change vs veh, ZBTB11 / RFU, TAMM41 / Fold change vs veh, TAMM41 / RFU, KIAA1704 /// LOC100996395 / Fold change vs veh, KIAA1704 /// LOC100996395 / RFU, ING1 / Fold change vs veh, ING1 / RFU, TRMT61B / Fold change vs veh, TRMT61B / RFU, FUBP3 / Fold change vs veh, FUBP3 / RFU, TP53 / Fold change vs veh, TP53 / RFU, TNKS2 / Fold change vs veh, TNKS2 / RFU, ZFP14 / Fold change vs veh, ZFP14 / RFU, ACTR2 / Fold change vs veh, ACTR2 / RFU, PPP3R1 / Fold change vs veh, PPP3R1 / RFU, PIK3R1 / Fold change vs veh, PIK3R1 / RFU, HNRNPA1 / Fold change vs veh, HNRNPA1 / RFU, RNF170 / Fold change vs veh, RNF170 / RFU, ZNF28 / Fold change vs veh, ZNF28 / RFU, RNGTT / Fold change vs veh, RNGTT / RFU, OGT / Fold change vs veh, OGT / RFU, BRD1 / Fold change vs veh, BRD1 / RFU, MARS / Fold change vs veh, MARS / RFU, ZNF655 / Fold change vs veh, ZNF655 / RFU, FAHD1 / Fold change vs veh, FAHD1 / RFU, BDP1 / Fold change vs veh, BDP1 / RFU, LRRCC1 / Fold change vs veh, LRRCC1 / RFU, ARID1A / Fold change vs veh, ARID1A / RFU, ZNF146 / Fold change vs veh, ZNF146 / RFU, ZNF330 / Fold change vs veh, ZNF330 / RFU, GPN3 / Fold change vs veh, GPN3 / RFU, C9orf123 / Fold change vs veh, C9orf123 / RFU, N4BP2L2 / Fold change vs veh, N4BP2L2 / RFU, ARFIP1 / Fold change vs veh, ARFIP1 / RFU, FAM179B / Fold change vs veh, FAM179B / RFU, BCL10 / Fold change vs veh, BCL10 / RFU, UHRF1BP1L / Fold change vs veh, UHRF1BP1L / RFU, BET1 / Fold change vs veh, BET1 / RFU, CNOT2 / Fold change vs veh, CNOT2 / RFU, ZNF268 / Fold change vs veh, ZNF268 / Fold change vs veh, ZNF507 / RFU, DGCR2 / Fold change vs veh, DGCR2 / RFU, WDSUB1 / Fold change vs veh, WDSUB1 / Fold change vs veh, HSP90B1 /// MIR3652 / RFU, ADSS / Fold change vs veh, ADSS / RFU, GK / Fold change vs veh, GK / RFU, ZNF148 / Fold change vs veh, ZNF148 / RFU, TAF9 / Fold change vs veh, TAF9 / RFU, SLC1A5 / Fold change vs veh, SLC1A5 / RFU, SLMO2 / Fold change vs veh, SLMO2 / RFU, ABCC4 / Fold change vs veh, ABCC4 / RFU, LOC101060439 /// RAP1B / Fold change vs veh, LOC101060439 /// RAP1B / RFU, RFX7 / Fold change vs veh, RFX7 / RFU, GTPBP10 / Fold change vs veh, GTPBP10 / RFU, CNEP1R1 / Fold change vs veh, CNEP1R1 / RFU, BIVM-ERCC5 /// ERCC5 / Fold change vs veh, BIVM-ERCC5 /// ERCC5 / RFU, ILF3 / Fold change vs veh, ILF3 / RFU 11762660_at / Fold change /veh 11762660_at / RFU VCAN (11757783_s_at) / Fold change /veh VCAN (11757783_s_at) / RFU DDX43 (11728927_at) / Fold change /veh DDX43 (11728927_at) / RFU KRT8 (11758188_x_at) / Fold change /veh KRT8 (11758188_x_at) / RFU NKD1 (11759106_at) / Fold change /veh NKD1 (11759106_at) / RFU SRD5A1 (11742802_a_at) / Fold change /veh SRD5A1 (11742802_a_at) / RFU TPSAB1 /// TPSB2 (11721975_s_at) / Fold change /veh TPSAB1 /// TPSB2 (11721975_s_at) / RFU GSTM3 (11746129_a_at) / Fold change /veh GSTM3 (11746129_a_at) / RFU IL23R (11737362_x_at) / Fold change /veh IL23R (11737362_x_at) / RFU TMEM51 (11727254_a_at) / Fold change /veh TMEM51 (11727254_a_at) / RFU PIWIL2 (11732686_x_at) / Fold change /veh PIWIL2 (11732686_x_at) / RFU ORM1 (11744905_x_at) / Fold change /veh ORM1 (11744905_x_at) / RFU CCDC152 (11743942_at) / Fold change /veh CCDC152 (11743942_at) / RFU ECM1 (11717891_a_at) / Fold change /veh ECM1 (11717891_a_at) / RFU IL23R (11748794_a_at) / Fold change /veh IL23R (11748794_a_at) / RFU TNFAIP8L3 (11732012_x_at) / Fold change /veh TNFAIP8L3 (11732012_x_at) / RFU MBOAT4 (11741988_at) / Fold change /veh MBOAT4 (11741988_at) / RFU 11764193_at / Fold change /veh 11764193_at / RFU TMEM53 (11763286_at) / Fold change /veh TMEM53 (11763286_at) / RFU MAGEB2 (11727129_at) / Fold change /veh MAGEB2 (11727129_at) / RFU TMEM200A (11744735_a_at) / Fold change /veh TMEM200A (11744735_a_at) / RFU CCDC152 (11751479_a_at) / Fold change /veh CCDC152 (11751479_a_at) / RFU FAM211A (11726209_a_at) / Fold change /veh FAM211A (11726209_a_at) / RFU RGS16 (11746705_a_at) / Fold change /veh RGS16 (11746705_a_at) / RFU VCAN (11755009_s_at) / Fold change /veh VCAN (11755009_s_at) / RFU RHOB (11743442_s_at) / Fold change /veh RHOB (11743442_s_at) / RFU RGS16 (11720943_a_at) / Fold change /veh RGS16 (11720943_a_at) / RFU RGS16 (11720944_at) / Fold change /veh RGS16 (11720944_at) / RFU, VPS4B / Fold change vs veh, VPS4B / RFU, CREB1 / Fold change vs veh, CREB1 / RFU, DNAJC13 / Fold change vs veh, DNAJC13 / RFU, GNAQ / Fold change vs veh, GNAQ / RFU, CDK5R1 / Fold change vs veh, CDK5R1 / RFU, ZRANB3 / Fold change vs veh, ZRANB3 / RFU, CUL4A / Fold change vs veh, CUL4A / RFU, CCNY / Fold change vs veh, CCNY / RFU, UFL1 / Fold change vs veh, UFL1 / RFU, COG3 / Fold change vs veh, COG3 / RFU, DIAPH2 / Fold change vs veh, DIAPH2 / RFU, SKA2 / Fold change vs veh, SKA2 / RFU, AFF3 / Fold change vs veh, AFF3 / RFU, LMF1 / Fold change vs veh, LMF1 / RFU, IPO11 / Fold change vs veh, IPO11 / RFU, DFFB / Fold change vs veh, DFFB / RFU, FOXP1 / Fold change vs veh, FOXP1 / RFU, CARD8 / Fold change vs veh, CARD8 / RFU, STRN3 / Fold change vs veh, STRN3 / RFU, ADK / Fold change vs veh, ADK / RFU, RASSF2 / Fold change vs veh, RASSF2 / RFU, WIPF1 / Fold change vs veh, WIPF1 / RFU, LARP1B / Fold change vs veh, LARP1B / RFU, RASA1 / Fold change vs veh, RASA1 / RFU, RB1 / Fold change vs veh, RB1 / RFU, PPFIA1 / Fold change vs veh, PPFIA1 / RFU, MAT2A / Fold change vs veh, MAT2A / RFU, CCT5 / Fold change vs veh, CCT5 / RFU, WDR92 / Fold change vs veh, WDR92 / RFU, CUX1 / Fold change vs veh, CUX1 / RFU, TTC7A / Fold change vs veh, TTC7A / RFU, TMEM135 / Fold change vs veh, TMEM135 / RFU, DEPTOR / Fold change vs veh, DEPTOR / RFU, CPM / Fold change vs veh, CPM / RFU, DNAJB6 / Fold change vs veh, DNAJB6 / RFU, CACNA2D3 / Fold change vs veh, CACNA2D3 / RFU, DTX4 / Fold change vs veh, DTX4 / RFU, TFCP2 / Fold change vs veh, TFCP2 / RFU, GMCL1 /// GMCL1P1 / Fold change vs veh, GMCL1 /// GMCL1P1 / RFU, AEBP2 / Fold change vs veh, AEBP2 / RFU, SNHG1 /// SNORD22 /// SNORD25 /// SNORD26 /// SNORD27 /// SNORD28 /// SNORD29 /// SNORD31 / Fold change vs veh, SNHG1 /// SNORD22 /// SNORD25 /// SNORD26 /// SNORD27 /// SNORD28 /// SNORD29 /// SNORD31 / Fold change (Aza/veh), C12orf56 (ProbeSet 11735607_a_at) / Fold change (ACY-1035/veh), C12orf56 (ProbeSet 11735607_a_at) / Fold change (Aza/veh), FGFR1OP (ProbeSet 11751329_s_at) / Fold change (ACY-1035/veh), FGFR1OP (ProbeSet 11751329_s_at) / Fold change (Aza/veh), VPS36 (ProbeSet 11739960_a_at) / Fold change (ACY-1035/veh), VPS36 (ProbeSet 11739960_a_at) / RFU SYPL1 (11715823_x_at) / Fold change /veh SYPL1 (11715823_x_at) / RFU IGFBP7 (11715501_s_at) / Fold change /veh IGFBP7 (11715501_s_at) / RFU REEP3 (11722064_at) / Fold change /veh REEP3 (11722064_at) / RFU IGLL1 (11728026_x_at) / Fold change /veh IGLL1 (11728026_x_at): dose or concentration left out as unconfirmed
Conditions: ProbeSet 11720270_a_at; LIST B

Nc1ccc(-c2cccs2)cc1NC(=O)c1ccc2c(c1)cc(C1CC1)n2CCN1CCOCC1 [ACY-1035]
Fold change vs veh, IBTK: 0.91
